From PubChem BioAssay AID330 (DTP/NCI, 2004)
Values joined by “and” are separate entries in the source; they are usually repeats but may differ in a detail not shown here. Equal entries are not always repeated. Inconclusive results and toxic doses are left out. How the source made its calls: active means survival T/C of 150% or more; inactive means T/C below 125% in these data. Square brackets hold non-standard residues; d marks the D form. Peptide text beside a SMILES is read from it. ξ: configuration not given here. Ac5c = NC1(C(=O)O)CCCC1; ξS = NC(CO)C(=O)O

Tested on: P388 leukemia ip, CD2F1 mice, survival T/C
Assay: NCI In Vivo Anticancer Drug Screen. Data for tumor model P388 Leukemia (intraperitoneal) in CD2F1 (CDF1) mice
Settings: endpoint: median survival time, higher = longer survival
Summary of the method: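 Mice carrying the transplanted tumor received test compound or vehicle. Survival was recorded in each group, and the value is the treated-group measurement divided by that of the vehicle-treated control group.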

[1] = dose: 25.0 mg/kg/injection, schedule: Q01DX009 (ip), vehicle: saline with Tween-80
[2] = dose: 50.0 mg/kg/injection, schedule: Q01DX009 (ip), vehicle: saline with Tween-80
[3] = dose: 100.0 mg/kg/injection, schedule: Q01DX009 (ip), vehicle: saline with Tween-80
[4] = dose: 400.0 mg/kg/injection, schedule: Q01DX009 (ip), vehicle: saline with Tween-80
[5] = dose: 200.0 mg/kg/injection, schedule: Q01DX009 (ip), vehicle: saline with Tween-80
[6] = dose: 60.0 mg/kg/injection, schedule: Q01DX005 (ip), vehicle: saline with Tween-80
[7] = dose: 120.0 mg/kg/injection, schedule: Q01DX005 (ip), vehicle: saline with Tween-80
[8] = dose: 240.0 mg/kg/injection, schedule: Q01DX005 (ip), vehicle: saline with Tween-80
[9] = dose: 12.5 mg/kg/injection, schedule: Q01DX009 (ip), vehicle: saline with Tween-80
[10] = dose: 240.0 mg/kg/injection, schedule: Q01DX005 (ip), vehicle: Klucel (hydroxypropylcellulose) (HPC)
[11] = dose: 50.0 mg/kg/injection, schedule: Q01DX009 (ip), vehicle: Klucel (hydroxypropylcellulose) (HPC)
[12] = dose: 100.0 mg/kg/injection, schedule: Q01DX009 (ip), vehicle: Klucel (hydroxypropylcellulose) (HPC)
[13] = dose: 100.0 mg/kg/injection, schedule: Q04DX003 (ip), vehicle: saline with Tween-80
[14] = dose: 50.0 mg/kg/injection, schedule: Q01DX005 (ip), vehicle: Klucel (hydroxypropylcellulose) (HPC)
[15] = dose: 100.0 mg/kg/injection, schedule: Q01DX005 (ip), vehicle: Klucel (hydroxypropylcellulose) (HPC)
[16] = dose: 200.0 mg/kg/injection, schedule: Q01DX005 (ip), vehicle: Klucel (hydroxypropylcellulose) (HPC)
[17] = dose: 200.0 mg/kg/injection, schedule: Q04DX003 (ip), vehicle: saline with Tween-80
[18] = dose: 400.0 mg/kg/injection, schedule: Q04DX003 (ip), vehicle: saline with Tween-80
[19] = dose: 12.5 mg/kg/injection, schedule: Q01DX009 (ip), vehicle: Klucel (hydroxypropylcellulose) (HPC)
[20] = dose: 25.0 mg/kg/injection, schedule: Q01DX009 (ip), vehicle: Klucel (hydroxypropylcellulose) (HPC)
[21] = dose: 50.0 mg/kg/injection, schedule: Q01DX009 (ip), vehicle: saline

Measured: T/C

CCOc1ccc2nc3cc(N=Nc4ccc5c(N)c6cc(OCC)ccc6nc5c4)ccc3c(N)c2c1
inactive: [1] 98 % of control | [2] 108 % of control | [3] 120 % of control | [4] 120 % of control

COCCCNC1=C(Cl)C(=O)c2ccccc2C1=O
inactive: [2] 99 % of control | [3] 117 % of control | [5] 104 % of control

C=CCOc1nc(OCC=C)nc(OCC=C)n1
inactive: [3] 97 % of control | [5] 93 % of control

O=C([CH-]C(=O)C(F)(F)F)c1ccco1.O=C([CH-]C(=O)C(F)(F)F)c1ccco1.O=C([CH-]C(=O)C(F)(F)F)c1ccco1.[Ru+3]
inactive: [6] 100 % of control | [7] 97 % of control | [8] 89 % of control

CCOc1ccc(N=c2ccn3ccccc3c2)cc1
inactive: dose: 6.25 mg/kg/injection, schedule: Q01DX009 (ip), vehicle: saline with Tween-80 102 % of control | [9] 110 % of control | [1] 111 % of control

O=C1NC(=O)C2(N1)C1CCCC2C(c2ccccc2)NC1c1ccccc1 (stereo not drawn)
inactive: [6] 96 % of control | [7] 91 % of control | [8] 90 % of control

O=C(Cc1ccccc1)NCCN1CCNCC1
inactive: dose: 100.0 mg/kg/injection, schedule: Q01DX001 (ip), vehicle: saline with Tween-80 105 % of control | dose: 200.0 mg/kg/injection, schedule: Q01DX001 (ip), vehicle: saline with Tween-80 108 % of control | dose: 400.0 mg/kg/injection, schedule: Q01DX001 (ip), vehicle: saline with Tween-80 96 % of control

CCC(=O)N(C)[C@@H]1Oc2ccc(O)cc2[C@]1(C)c1cc(O)ccc1O
inactive: dose: 60.0 mg/kg/injection, schedule: Q01DX005 (ip), vehicle: Klucel (hydroxypropylcellulose) (HPC) 98 % of control | dose: 120.0 mg/kg/injection, schedule: Q01DX005 (ip), vehicle: Klucel (hydroxypropylcellulose) (HPC) 97 % of control | [10] 99 % of control

O=C(Sc1ccc(Cl)cc1)N1CCN(C(=O)Sc2ccc(Cl)cc2)CC1
inactive: [11] 92 % of control | [12] 90 % of control | dose: 200.0 mg/kg/injection, schedule: Q01DX009 (ip), vehicle: Klucel (hydroxypropylcellulose) (HPC) 94 % of control

O=C/C=C/c1ccc([N+](=O)[O-])cc1
inactive: dose: 25.0 mg/kg/injection, schedule: Q04DX003 (ip), vehicle: saline with Tween-80 100 % of control | dose: 50.0 mg/kg/injection, schedule: Q04DX003 (ip), vehicle: saline with Tween-80 110 % of control | [13] 105 % of control

CNc1nc2c(N)ncnc2n1C1CC(O)C(CO)O1 (stereo not drawn)
inactive: [14] 101 % of control | [15] 96 % of control | [16] 104 % of control

COc1cc2cc[n+]3c(c2cc1OC)-c1c2cc(OC)c(OC)cc2cc[n+]1CC3
inactive: [9] 100 % of control | [1] 97 % of control

C(=C1c2ccccc2-c2ccccc21)c1ccccc1
inactive: [13] 100 % of control | [17] 100 % of control | [18] 100 % of control

CC(C)c1cccc(C(C)C)c1NC(=O)Nc1cccc(C(F)(F)F)c1
inactive: dose: 15.0 mg/kg/injection, schedule: Q01DX005 (ip), vehicle: Klucel (hydroxypropylcellulose) (HPC) 88 % of control | dose: 30.0 mg/kg/injection, schedule: Q01DX005 (ip), vehicle: Klucel (hydroxypropylcellulose) (HPC) 93 % of control | [10] 88 % of control

NC(CO)C(=O)NC1(C(=O)O)CCCC1 (stereo not drawn) (H-[ξS]-[Ac5c]-OH)
inactive: [13] 95 % of control | [17] 100 % of control | [18] 120 % of control

CNC(=O)OCc1c(COC(=O)NC)c(C)n(-c2ccc(OC)cc2)c1C
active: [19] 152 % of control | [20] 153 % of control | [11] 171 % of control

S=C(/N=N/c1[nH]c2ccccc2c1NNC(=S)NC12CC3CC(CC(C3)C1)C2)NC12CC3CC(CC(C3)C1)C2
inactive: dose: 30.0 mg/kg/injection, schedule: Q01DX005 (ip), vehicle: saline with Tween-80 96 % of control | [6] 96 % of control | [7] 87 % of control | [8] 90 % of control

COC(=O)C[n+]1ccc2ccccc2c1
inactive: [21] 99 % of control | dose: 100.0 mg/kg/injection, schedule: Q01DX009 (ip), vehicle: saline 99 % of control | dose: 200.0 mg/kg/injection, schedule: Q01DX009 (ip), vehicle: saline 95 % of control

CS1(C)=NC(=O)C2=C(N=1)c1ccccc1S2(=O)=O
inactive: [6] 97 % of control | [7] 94 % of control | [8] 89 % of control

CS(=O)(=O)OC1C(COC(=O)c2ccccc2)OC2C1Oc1nc(=O)ccn12 (stereo not drawn)
inactive: [14] 98 % of control | [15] 99 % of control | [16] 101 % of control

CC(C)(CNC(=O)C12CC3CC(CC(C3)C1)C2)NC(=O)C12CC3CC(CC(C3)C1)C2
inactive: dose: 12.5 mg/kg/injection, schedule: Q01DX005 (ip), vehicle: Klucel (hydroxypropylcellulose) (HPC) 98 % of control | dose: 25.0 mg/kg/injection, schedule: Q01DX005 (ip), vehicle: Klucel (hydroxypropylcellulose) (HPC) 107 % of control | [14] 93 % of control | [15] 88 % of control

Nc1ccccc1C(=O)CCc1ccccc1C(=O)O
inactive: dose: 50.0 mg/kg/injection, schedule: Q01DX005 (ip), vehicle: saline with Tween-80 96 % of control | dose: 100.0 mg/kg/injection, schedule: Q01DX005 (ip), vehicle: saline with Tween-80 99 % of control | dose: 200.0 mg/kg/injection, schedule: Q01DX005 (ip), vehicle: saline with Tween-80 96 % of control

Cc1cc(N2C(=O)CCSC2=S)ccc1F
inactive: dose: 12.5 mg/kg/injection, schedule: Q01DX009 (ip), vehicle: saline 101 % of control | dose: 25.0 mg/kg/injection, schedule: Q01DX009 (ip), vehicle: saline 108 % of control | [21] 108 % of control | dose: 50.0 mg/kg/injection, schedule: Q01DX009 (ip), vehicle: suspension in saline 91 % of control | dose: 100.0 mg/kg/injection, schedule: Q01DX009 (ip), vehicle: suspension in saline 94 % of control | dose: 200.0 mg/kg/injection, schedule: Q01DX009 (ip), vehicle: suspension in saline 88 % of control

Nc1cc(Cl)ccc1[N+](=O)[O-]
inactive: [3] 108 % of control | [5] 99 % of control | [4] 89 % of control

ClCC(OCc1ccccc1)OCc1ccccc1
inactive: dose: 12.5 mg/kg/injection, schedule: Q01DX009 (ip), vehicle: other 114 % of control | dose: 25.0 mg/kg/injection, schedule: Q01DX009 (ip), vehicle: other 100 % of control | dose: 50.0 mg/kg/injection, schedule: Q01DX009 (ip), vehicle: other 100 % of control | dose: 100.0 mg/kg/injection, schedule: Q01DX009 (ip), vehicle: other 111 % of control | dose: 200.0 mg/kg/injection, schedule: Q01DX009 (ip), vehicle: other 119 % of control

CCCCCCC/C=C/C(=O)OC1C(OC2C(OC(CCCCCCC)CC(=O)OC(CCCCCCC)CC(=O)O)OC(C)C(O)C2O)OC(C)C(O)C1O (stereo not drawn)
inactive: [19] 102 % of control and 89 % of control | [20] 98 % of control and 120 % of control and 87 % of control | [11] 120 % of control and 95 % of control (2×) | [12] 116 % of control

CCOc1ccc(OCC)c(C(O)C(C)NC(C)C)c1 (stereo not drawn)
inactive: dose: 6.25 mg/kg/injection, schedule: Q01DX009 (ip), vehicle: Klucel (hydroxypropylcellulose) (HPC) 101 % of control | [19] 100 % of control | [20] 99 % of control and 115 % of control
